# In patent publication US20220361497A1, “METHOD FOR CONTROLLING GROWTH OF MICROORGANISMS AND/OR BIOFILMS IN AN INDUSTRIAL PROCESS” (Kemira Oyj, priority 2017, published 2022):
# Assays:
# Format in all cases: cell-based
# [1] = test system: Pseudoxanthomonas taiwanensis biofilms; assay: Prevention of biofilm formation, 96-microwell plate with peg lids, Crystal Violet staining; settings: for Biofilm quantity after 48 h contact time, Abs. at 595 nm / Biofilm reduction after 48 h contact time: SPW, 45° C., 150 rpm
# Source text: (§1) Pure cultures of Meiothermus silvanus, a microbe species commonly found in paper machine biofilms (Ekman J, Journal of Industrial Microbiology & Biotechnology 34:203-211) and Pseudoxanthomonas taiwanensis, another species commonly found in paper machine environments (Desjardins, E & Beaulieu, C, Journal of Industrial Microbiology & Biotechnology 30:141-145) were used to study the efficacy of various chemicals to prevent biofilm formation.
# (§2) Biofilm tests were done in either synthetic commercial R2-broth (Lab M Ltd, UK) or fibre-containing synthetic paper machine water, SPW (prepared according to Peltola et al., J. Ind. Microbiol. Biotechnol. 2011, 38: 1719-1727) using 96-microwell plate wells with peg lids (Thermo Fischer Scientific Inc., USA). Plates were incubated at 45° C. with a rotary shaking (150 rpm) providing high flow in each well.
# (§3) For experiments of preventing biofilm formation wells of 96-microwell plates with peg-lids were filled with R2-broth or SPW, inoculated with the pure bacterial cultures and treated with different amounts of chemical compounds to be tested. Peg-lid was put on. After 24 hours the wells were emptied and a fresh solution of pure culture containing SPW or R2 broth with different amounts of test chemicals were added to the wells and the original peg-lid was put back in place. After an additional 24 hours, i.e., 48 hours after starting the test, the wells were emptied, rinsed and the peg lid and wells were left to dry.
# (§4) The amount of biofilm formed on the microwells, and peg surfaces was quantified with a staining solution by adding 200 μl of 1% Crystal Violet (Merck Millipore KGaA, Germany) in methanol to each well and placing the peg-lid back on. After 3 minutes the wells were emptied, and the wells and pegs were rinsed 3 times with tap water. The attached Crystal Violet was dissolved into ethanol and the absorbance at 595 nm was measured. The values shown in the following tables are average absorbance from 8 replicate wells and pegs.
# (§5) All absorbance values in Examples 1-6 are given actual measured values. In calculation for biofilm reduction percentages it was taken in account that the SPW alone for 2 days without any bacterial inoculum gave a background value of 0.14.
# [2] = test system: Meiothermus silvanus biofilms; assay: as above; settings: for Biofilm quantity after 48 h contact time in SPW, Abs. at 595 nm / Biofilm reduction after 48 h contact time in SPW / Biofilm quantity after 48 h contact time, Abs. at 595 nm / Biofilm reduction after 48 h contact time: SPW; for Biofilm quantity after 48 h contact time, Abs. at 595 nm / Biofilm reduction after 48 h contact time: 45° C., 150 rpm
# Source text: as §1, §2, §3, §4, §5
# [3] = test system: Meiothermus silvanus biofilms; assay: Removal of existing (preformed) biofilm, 96-microwell plate with peg lids, Crystal Violet staining; settings: SPW, 45° C., 150 rpm; for Biofilm quantity after 24 h pre-growth and 24 h contact time, Abs. at 595 nm / Biofilm reduction after 24 h pre-growth and 24 h contact time: separated isomer
# Source text: as §1, §2
# (§6) For experiments of removing already existing (preformed) biofilm wells of 96-microwell plates with peg-lids were filled with SPW, inoculated with the pure bacterial cultures. Biofilm was grown for 24 hours without addition of any chemical compound to be tested. In some experiments after 24 hours the procedure was repeated by emptying the wells and by addition of a fresh solution of SPW inoculated with pure bacterial culture, again without any test chemical compound. The original peg-lid was put back in place and biofilm was allowed to grow for additional 24 h, i.e., in total 48 h.
# (§7) After 24 or 48 hours after starting the test, the wells were emptied and a fresh solution of SPW, inoculated with the pure bacterial cultures and with different amounts of chemical compounds to be tested were added and the original peg-lid was placed back in place. After an additional 2 or 24 hours the wells were emptied, rinsed and the peg lid and wells were left to dry.
# as §4, §5
# [4] = test system: Pseudoxanthomonas taiwanensis biofilms; assay: as above; settings: SPW; for Biofilm quantity after 48 h pre-growth and 24 h contact time, Abs. at 595 nm / Biofilm reduction after 48 h pre-growth and 24 h contact time: 45° C., 150 rpm
# Source text: as §1, §2, §6, §7, §4, §5
# [5] = Compound B dosage 0.25 mg/l active
# [6] = Compound B dosage 1 mg/l active
# [7] = Compound B dosage 3 mg/l active
# [8] = Compound B dosage 10 mg/l active
# [9] = Compound B dosage 0.1 mg/l active
# [10] = separated isomer, dosage 0.1 mg/l active
# [11] = separated isomer, dosage 0.2 mg/l active
compound,measurement,setting,value
Gramicidin [reference compound],"Biofilm quantity after 48 h contact time in SPW, Abs at 595 nm",[1]; Gramicidin dosage 3 mg/l,2.25
same,Biofilm reduction after 48 h contact time in SPW,[1]; Gramicidin dosage 3 mg/l,5.4%
same,"Biofilm quantity after 48 h contact time in SPW, Abs at 595 nm",[1]; Gramicidin dosage 10 mg/l,2.41
same,Biofilm reduction after 48 h contact time in SPW,[1]; Gramicidin dosage 10 mg/l,−1.8%
same,"Biofilm quantity after 48 h contact time in SPW, Abs at 595 nm",[1]; Gramicidin dosage 25 mg/l,2.42
same,Biofilm reduction after 48 h contact time in SPW,[1]; Gramicidin dosage 25 mg/l,−2.2%
same,"Biofilm quantity after 48 h contact time in SPW, Abs. at 595 nm",[2]; Gramicidin dosage 0.2 mg/l,1.33
same,Biofilm reduction after 48 h contact time in SPW,[2]; Gramicidin dosage 0.2 mg/l,2.5%
same,"Biofilm quantity after 48 h contact time in SPW, Abs. at 595 nm",[2]; Gramicidin dosage 1 mg/l,1.41
same,Biofilm reduction after 48 h contact time in SPW,[2]; Gramicidin dosage 1 mg/l,−4.1%
same,"Biofilm quantity after 48 h contact time in SPW, Abs. at 595 nm",[2]; Gramicidin dosage 3 mg/l,0.45
same,Biofilm reduction after 48 h contact time in SPW,[2]; Gramicidin dosage 3 mg/l,74.6%
same,"Biofilm quantity after 48 h contact time in SPW, Abs. at 595 nm",[2]; Gramicidin dosage 10 mg/l,0.19
same,Biofilm reduction after 48 h contact time in SPW,[2]; Gramicidin dosage 10 mg/l,95.9%
"Nc1ccc(S(=O)(=O)Nc2nccs2)cc1 [Compound B, 4-amino-N-2-thiazolyl-benzenesulphonamide]","Biofilm quantity after 48 h contact time, Abs. at 595 nm",[1]; [5],2.35
same,Biofilm reduction after 48 h contact time,[1]; [5],2.6%
same,"Biofilm quantity after 48 h contact time, Abs. at 595 nm",[1]; [6],2.04
same,Biofilm reduction after 48 h contact time,[1]; [6],16.3%
same,"Biofilm quantity after 48 h contact time, Abs. at 595 nm",[1]; [7],0.84
same,Biofilm reduction after 48 h contact time,[1]; [7],69.3%
same,"Biofilm quantity after 48 h contact time, Abs. at 595 nm",[1]; [8],0.54
same,Biofilm reduction after 48 h contact time,[1]; [8],82.4%
same,"Biofilm quantity after 48 h contact time, Abs. at 595 nm",[2]; [9],0.62
same,Biofilm reduction after 48 h contact time,[2]; [9],34.4%
same,"Biofilm quantity after 48 h contact time, Abs. at 595 nm",[2]; [5],0.18
same,Biofilm reduction after 48 h contact time,[2]; [5],94.0%
same,"Biofilm quantity after 48 h contact time, Abs. at 595 nm",[2]; [6],0.15
same,Biofilm reduction after 48 h contact time,[2]; [6],99.1%
same,"Biofilm quantity after 48 h contact time, Abs. at 595 nm",[2]; [7],0.16
same,Biofilm reduction after 48 h contact time,[2]; [7],97.9%
same,"Biofilm quantity after 48 h contact time, Abs. at 595 nm",[2]; [8],0.18
same,Biofilm reduction after 48 h contact time,[2]; [8],94.0%
"Cc1ccc(S(=O)(=O)C=CC#N)cc1 [E-isomer of Compound A, 3-[(4-methylphenyl)sulfonyl]-2-propenenitrile]","Biofilm quantity after 24 h pre-growth and 24 h contact time, Abs. at 595 nm",[3]; dosage 0.2 mg/l active,0.90
same,Biofilm reduction after 24 h pre-growth and 24 h contact time,[3]; dosage 0.2 mg/l active,67.6%
same,"Biofilm quantity after 24 h pre-growth and 24 h contact time, Abs. at 595 nm",[3]; dosage 1 mg/l active,0.26
same,Biofilm reduction after 24 h pre-growth and 24 h contact time,[3]; dosage 1 mg/l active,95.0%
same,"Biofilm quantity after 48 h contact time, Abs. at 595 nm",[1]; [10],0.36
same,Biofilm reduction after 48 h contact time,[1]; [10],90.6%
same,"Biofilm quantity after 48 h contact time, Abs. at 595 nm",[1]; [11],0.16
same,Biofilm reduction after 48 h contact time,[1]; [11],99.1%
same,"Biofilm quantity after 48 h contact time, Abs. at 595 nm",[2]; [10],0.40
same,Biofilm reduction after 48 h contact time,[2]; [10],88.9%
same,"Biofilm quantity after 48 h contact time, Abs. at 595 nm",[2]; [11],0.16
same,Biofilm reduction after 48 h contact time,[2]; [11],99.3%
"N#CC(Br)(Br)C(N)=O [DBNPA, 2,2-dibromo-3-nitrilopropionamide, reference compound]",dosage required to reach same (over 90%) biofilm reduction efficacy,"[2]; active compound, synthetic paper machine water, high temperature, fibres present, high flow",1 mg/L
"Cc1ccc(S(=O)(=O)C=CC#N)cc1 [Compound A, 3-[(4-methylphenyl)sulfonyl]-2-propenenitrile]","Biofilm quantity after 48 h pre-growth and 24 h contact time, Abs. at 595 nm",[4]; dosage 0.2 mg/l active,1.73
same,Biofilm reduction after 48 h pre-growth and 24 h contact time,[4]; dosage 0.2 mg/l active,32.2%
same,"Biofilm quantity after 48 h pre-growth and 24 h contact time, Abs. at 595 nm",[4]; dosage 0.5 mg/l active,0.13
same,Biofilm reduction after 48 h pre-growth and 24 h contact time,[4]; dosage 0.5 mg/l active,100.2%
same,removal of already formed biofilm (in words),"[4]; single dosage of 0.5 mg/l active compound, 48-hour pre-growth, 24 hours after addition",removed all of the biofilm
same,"Biofilm quantity after 48 h pre-growth and 2 h contact time, Abs. at 595 nm",[3]; dosage 0.5 mg/l active,1.20
same,Biofilm reduction after 48 h pre-growth and 2 h contact time,[3]; dosage 0.5 mg/l active,8.0%
same,"Biofilm quantity after 48 h pre-growth and 2 h contact time, Abs. at 595 nm",[3]; dosage 1 mg/l active,1.11
same,Biofilm reduction after 48 h pre-growth and 2 h contact time,[3]; dosage 1 mg/l active,16.3%
same,"Biofilm quantity after 48 h pre-growth and 2 h contact time, Abs. at 595 nm",[3]; dosage 2 mg/l active,0.99
same,Biofilm reduction after 48 h pre-growth and 2 h contact time,[3]; dosage 2 mg/l active,26.6%
same,"Biofilm quantity after 48 h contact time, Abs. at 595 nm",[1]; dosage 0.01 mg/l active,1.42
same,Biofilm reduction after 48 h contact time,[1]; dosage 0.01 mg/l active,4.5%
same,"Biofilm quantity after 48 h contact time, Abs. at 595 nm",[1]; dosage 0.03 mg/l active,1.26
same,Biofilm reduction after 48 h contact time,[1]; dosage 0.03 mg/l active,16.4%
same,"Biofilm quantity after 48 h contact time, Abs. at 595 nm",[1]; dosage 0.08 mg/l active,0.88
same,Biofilm reduction after 48 h contact time,[1]; dosage 0.08 mg/l active,44.8%
same,"Biofilm quantity after 48 h contact time, Abs. at 595 nm",[1]; dosage 0.13 mg/l active,0.55
same,Biofilm reduction after 48 h contact time,[1]; dosage 0.13 mg/l active,69.4%
same,"Biofilm quantity after 48 h contact time, Abs. at 595 nm",[1]; dosage 0.20 mg/l active,0.39
same,Biofilm reduction after 48 h contact time,[1]; dosage 0.20 mg/l active,81.3%
same,"Biofilm quantity after 48 h contact time, Abs. at 595 nm",[2]; dosage 0.01 mg/l active,0.80
same,Biofilm reduction after 48 h contact time,[2]; dosage 0.01 mg/l active,21.4%
same,"Biofilm quantity after 48 h contact time, Abs. at 595 nm",[2]; dosage 0.03 mg/l active,0.75
same,Biofilm reduction after 48 h contact time,[2]; dosage 0.03 mg/l active,27.4%
same,"Biofilm quantity after 48 h contact time, Abs. at 595 nm",[2]; dosage 0.08 mg/l active,0.58
same,Biofilm reduction after 48 h contact time,[2]; dosage 0.08 mg/l active,47.6%
same,"Biofilm quantity after 48 h contact time, Abs. at 595 nm",[2]; dosage 0.13 mg/l active,0.22
same,Biofilm reduction after 48 h contact time,[2]; dosage 0.13 mg/l active,90.5%
same,"Biofilm quantity after 48 h contact time, Abs. at 595 nm",[2]; dosage 0.20 mg/l active,0.15
same,Biofilm reduction after 48 h contact time,[2]; dosage 0.20 mg/l active,98.8%
same,biofilm reduction effect,"[2]; dosage of 0.13 mg/l active, synthetic paper machine water, high temperature, fibres present, high flow",over 90%
"Cc1ccc(S(=O)(=O)C=CC#N)cc1 [Z-isomer of Compound A, 3-[(4-methylphenyl)sulfonyl]-2-propenenitrile]","Biofilm quantity after 24 h pre-growth and 24 h contact time, Abs. at 595 nm",[3]; dosage 0.2 mg/l active,0.81
same,Biofilm reduction after 24 h pre-growth and 24 h contact time,[3]; dosage 0.2 mg/l active,71.3%
same,"Biofilm quantity after 24 h pre-growth and 24 h contact time, Abs. at 595 nm",[3]; dosage 1 mg/l active,0.27
same,Biofilm reduction after 24 h pre-growth and 24 h contact time,[3]; dosage 1 mg/l active,94.6%
same,"Biofilm quantity after 48 h contact time, Abs. at 595 nm",[1]; [10],0.16
same,Biofilm reduction after 48 h contact time,[1]; [10],99.3%
same,"Biofilm quantity after 48 h contact time, Abs. at 595 nm",[1]; [11],0.16
same,Biofilm reduction after 48 h contact time,[1]; [11],99.3%
same,"Biofilm quantity after 48 h contact time, Abs. at 595 nm",[2]; [10],0.16
same,Biofilm reduction after 48 h contact time,[2]; [10],99.1%
same,"Biofilm quantity after 48 h contact time, Abs. at 595 nm",[2]; [11],0.15
same,Biofilm reduction after 48 h contact time,[2]; [11],99.4%
